In ChEMBL document CHEMBL1201862, “PubChem BioAssay data set” (2004):
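96-well plates; 48 h exposure; 5 concentrations. Endpoints by linear interpolation between flanking doses. Not reached: highest tested concentration assigned. GI50: concentration for 50% inhibition of growth.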 The source made the active and inactive calls. Cut-off read from the data, not from the text of the source: active = GI50 up to about 1.1 µM and inactive = higher.

Experiments:
Experiment in all cases: NCI tumour cell line growth inhibition, 48 h
CAKI-1 = system: CAKI-1
CCRF-CEM = system: CCRF-CEM
COLO 205 = system: COLO 205
Hs-578T = system: Hs-578T
K562 = system: K562
KM12 = system: KM12
M14 = system: M14
Malme-3M = system: Malme-3M
NCI/ADR-RES = system: NCI/ADR-RES
OVCAR-4 = system: OVCAR-4
OVCAR-8 = system: OVCAR-8
SK-MEL-28 = system: SK-MEL-28
SK-MEL-5 = system: SK-MEL-5
SK-OV-3 = system: SK-OV-3
SW-620 = system: SW-620
TK-10 = system: TK-10
U-251 = system: U-251
UACC-257 = system: UACC-257
UACC-62 = system: UACC-62
UO-31 = system: UO-31

SMILES | GI50 (CAKI-1) | GI50 (CCRF-CEM) | GI50 (COLO 205) | GI50 (Hs-578T) | GI50 (K562) | GI50 (KM12) | GI50 (M14) | GI50 (Malme-3M) | GI50 (NCI/ADR-RES) | GI50 (OVCAR-4) | GI50 (OVCAR-8) | GI50 (SK-MEL-28) | GI50 (SK-MEL-5) | GI50 (SK-OV-3) | GI50 (SW-620) | GI50 (TK-10) | GI50 (U-251) | GI50 (UACC-257) | GI50 (UACC-62) | GI50 (UO-31)
COc1c2c3c4c(c(OC)c(=O)c5c(O)cc(OC)c(c6c(OC)cc(O)c(c1=O)c63)c54)C(C(C)O)C2C(C)O (stereo not given) | 0.53 µM (active) | 0.542 µM (active) | 0.789 µM (active) | 0.855 µM (active) | 0.387 µM (active) | 0.873 µM (active) | 1.07 µM (active) | 1.17 µM (inactive) | 0.923 µM (active) | 1.32 µM (inactive) | 0.449 µM (active) | 0.953 µM (active) | 0.24 µM (active) | 1.31 µM (inactive) | 0.522 µM (active) | 1.72 µM (inactive) | 0.405 µM (active) | 0.792 µM (active) | 0.953 µM (active) | 0.39 µM (active)
O=C(O)C(SC1=NC(=O)C2(NN1)c1ccccc1-c1ccccc12)SC1=NC(=O)C2(NN1)c1ccccc1-c1ccccc12 | > 10 µM (inactive) | > 10 µM (inactive) | > 10 µM (inactive) | > 10 µM (inactive) | 9.51 µM (inactive) | > 10 µM (inactive) | > 10 µM (inactive) | > 10 µM (inactive) | > 10 µM (inactive) | > 10 µM (inactive) | > 10 µM (inactive) | > 10 µM (inactive) | > 10 µM (inactive) | > 10 µM (inactive) | > 10 µM (inactive) | > 10 µM (inactive) | > 10 µM (inactive) | > 10 µM (inactive) | > 10 µM (inactive) | > 10 µM (inactive)
CSC1=C(c2ccc(Cl)cc2)SC(N2CCCCC2)N1c1ccc([N+](=O)[O-])cc1 (stereo not given) | 44.8 µM (inactive) | 38.4 µM (inactive) | 27.1 µM (inactive) | 47.9 µM (inactive) | 33 µM (inactive) | 31 µM (inactive) | 18.5 µM (inactive) | 45.2 µM (inactive) | 26.7 µM (inactive) | 23.3 µM (inactive) | 32.1 µM (inactive) | 38.8 µM (inactive) | 14.6 µM (inactive) | 30.9 µM (inactive) | 38.7 µM (inactive) | 42.2 µM (inactive) | 21.4 µM (inactive) | 24.8 µM (inactive) | 17.5 µM (inactive) | 32.7 µM (inactive)
CC[C@@]1(O)C(=O)OCc2c1cc1n(c2=O)Cc2c-1nc1ccccc1c2/C=N\NC(=O)C(N)Cc1c[nH]cn1 (stereo not given in full) | 0.147 µM (active) | 0.0214 µM (active) | 8.39 µM (inactive) | > 64.9 µM (inactive) | 0.468 µM (active) | 2.38 µM (inactive) | 0.324 µM (active) | 2.53 µM (inactive) | 0.41 µM (active) | 4.41 µM (inactive) | 0.184 µM (active) | 1.26 µM (inactive) | 0.222 µM (active) | 0.234 µM (active) | 0.148 µM (active) | 13.3 µM (inactive) | 0.0776 µM (active) | 2.68 µM (inactive) | 0.0723 µM (active) | 0.348 µM (active)
CCOP(=O)(OCC)/C(C#N)=C/c1c(C)[nH]c2ccccc12 | > 100 µM (inactive) | > 100 µM (inactive) | > 100 µM (inactive) | > 100 µM (inactive) | > 100 µM (inactive) | > 100 µM (inactive) | > 100 µM (inactive) | > 100 µM (inactive) | > 100 µM (inactive) | > 100 µM (inactive) | > 100 µM (inactive) | > 100 µM (inactive) | > 100 µM (inactive) | > 100 µM (inactive) | > 100 µM (inactive) | > 100 µM (inactive) | > 100 µM (inactive) | > 100 µM (inactive) | > 100 µM (inactive) | 30.4 µM (inactive)
O=C1C=C(NCCOCCO)C(=O)c2c(O)ccc(O)c21 | 43.3 µM (inactive) | 27.4 µM (inactive) | 17.1 µM (inactive) | 34.4 µM (inactive) | 27.9 µM (inactive) | 30.1 µM (inactive) | 22.5 µM (inactive) | 11.9 µM (inactive) | 23.1 µM (inactive) | 18 µM (inactive) | 28.2 µM (inactive) | 69 µM (inactive) | 13.2 µM (inactive) | 33.4 µM (inactive) | 18.1 µM (inactive) | > 100 µM (inactive) | 30.5 µM (inactive) | 20.8 µM (inactive) | 14.5 µM (inactive) | 59.8 µM (inactive)
c1ccc(CSCCc2ccncc2)cc1 | < 0.01 µM (active) | > 100 µM (inactive) | > 100 µM (inactive) | > 100 µM (inactive) | > 100 µM (inactive) | > 100 µM (inactive) | > 100 µM (inactive) | > 100 µM (inactive) | > 100 µM (inactive) | 44 µM (inactive) | > 100 µM (inactive) | > 100 µM (inactive) | > 100 µM (inactive) | > 100 µM (inactive) | > 100 µM (inactive) | > 100 µM (inactive) | > 100 µM (inactive) | 53 µM (inactive) | > 100 µM (inactive) | > 100 µM (inactive)
O=C1C(/N=N/c2ccc(-c3nc4ccccc4o3)cc2)NC(=S)N1c1ccccc1 (stereo not given) | 90.8 µM (inactive) | 0.0479 µM (active) | > 100 µM (inactive) | > 100 µM (inactive) | 67.8 µM (inactive) | > 100 µM (inactive) | 62.7 µM (inactive) | > 100 µM (inactive) | 73.5 µM (inactive) | 82 µM (inactive) | 60.3 µM (inactive) | > 100 µM (inactive) | 49.1 µM (inactive) | > 100 µM (inactive) | 32.3 µM (inactive) | 70 µM (inactive) | > 100 µM (inactive) | 39.1 µM (inactive) | 80.2 µM (inactive) | > 100 µM (inactive)
O[C@H]1[C@H]2c3cc4c(cc3CN3CCC(=C[C@@H]1O)[C@H]23)OCO4 [LYCORINE] | 1.24 µM (inactive) | 1.82 µM (inactive) | 1.25 µM (inactive) | 2.91 µM (inactive) | 1.2 µM (inactive) | 2.7 µM (inactive) | 1.86 µM (inactive) | 1.92 µM (inactive) | 2.31 µM (inactive) | 1.34 µM (inactive) | 1.53 µM (inactive) | 2.7 µM (inactive) | 1.42 µM (inactive) | 1.84 µM (inactive) | 2.61 µM (inactive) | 2.67 µM (inactive) | 1.99 µM (inactive) | 0.65 µM (active) | 2.08 µM (inactive) | 1.47 µM (inactive)
Cc1ccc2cccc(OC(=O)c3cc4c(cc3Cl)Sc3nccn3S4(=O)=O)c2n1 | 26.6 µM (inactive) | 2.5 µM (inactive) | 15.8 µM (inactive) | 13.4 µM (inactive) | 4.06 µM (inactive) | 5.75 µM (inactive) | 8.79 µM (inactive) | 17.5 µM (inactive) | 14 µM (inactive) | 11.3 µM (inactive) | 4.71 µM (inactive) | 10.2 µM (inactive) | 12.3 µM (inactive) | 22.8 µM (inactive) | 9.71 µM (inactive) | 11 µM (inactive) | 4.34 µM (inactive) | 12.2 µM (inactive) | 14.7 µM (inactive) | 2.05 µM (inactive)
CCOC(=O)c1cccc(/N=N/c2nc[nH]c2/C=C/C(=O)OC)c1 | 4.97 µM (inactive) | 3.95 µM (inactive) | 4.39 µM (inactive) | 53.5 µM (inactive) | 4.06 µM (inactive) | 15.8 µM (inactive) | 13.3 µM (inactive) | 8.71 µM (inactive) | 4.1 µM (inactive) | 6.58 µM (inactive) | 16.5 µM (inactive) | 18.1 µM (inactive) | 7.36 µM (inactive) | 44.8 µM (inactive) | 6.47 µM (inactive) | 28.4 µM (inactive) | 6.73 µM (inactive) | 12.9 µM (inactive) | 23.6 µM (inactive) | 8.15 µM (inactive)
C(=C(c1ccc(OC2CCCCO2)cc1)c1ccc(OC2CCCCO2)cc1)c1ccccc1 (stereo not given) | 0.637 µM (active) | 0.246 µM (active) | 0.583 µM (active) | 1.13 µM (inactive) | 0.35 µM (active) | 0.156 µM (active) | 0.697 µM (active) | 0.863 µM (active) | 0.883 µM (active) | 0.392 µM (active) | 0.598 µM (active) | 1.04 µM (active) | 0.444 µM (active) | 1.29 µM (inactive) | 0.54 µM (active) | 1.14 µM (inactive) | 0.792 µM (active) | 0.378 µM (active) | 0.547 µM (active) | 0.895 µM (active)
Fc1ccc(-c2sc(-c3cccs3)cc2Cc2cccs2)cc1 | > 100 µM (inactive) | 91 µM (inactive) | > 100 µM (inactive) | > 100 µM (inactive) | > 100 µM (inactive) | > 100 µM (inactive) | > 100 µM (inactive) | > 100 µM (inactive) | > 100 µM (inactive) | > 100 µM (inactive) | > 100 µM (inactive) | > 100 µM (inactive) | > 100 µM (inactive) | > 100 µM (inactive) | > 100 µM (inactive) | > 100 µM (inactive) | > 100 µM (inactive) | > 100 µM (inactive) | > 100 µM (inactive) | > 100 µM (inactive)
CCn1ncc(Oc2c(Cl)cc(N)cc2Cl)c(Cl)c1=O | 35.1 µM (inactive) | 83 µM (inactive) | 22.7 µM (inactive) | 22.5 µM (inactive) | 35.1 µM (inactive) | 34.8 µM (inactive) | 30.1 µM (inactive) | 32.9 µM (inactive) | 31 µM (inactive) | 54 µM (inactive) | 56.5 µM (inactive) | 51.3 µM (inactive) | 24 µM (inactive) | 31.3 µM (inactive) | 37.2 µM (inactive) | 47.2 µM (inactive) | 34.1 µM (inactive) | 31.6 µM (inactive) | 39.5 µM (inactive) | 47.4 µM (inactive)
